Values of other authors as cited in US20080064711A1, “Composition for treating oral cavity and Mucousal infections” (J.P.M.E.D. LTD., priority 2002, published 2008).

Experiments:
[1] = system: human keratinocyte and fibroblast cultures; conditions: Ponec et al. J Pharm Sci 1990
[2] = system: Gram negative bacteria that tend to colonize the oral cavity; conditions: patients undergoing radiation therapy; Spijkervet et al., 1990

SMILES: CN(C)C=O [dimethylformamide]
- Cytotoxicity to human keratinocyte and fibroblast cultures [1]: cytotoxic

SMILES: CCO [Ethanol]
- Cytotoxicity to human keratinocyte and fibroblast cultures [1]: cytotoxic

SMILES: [H]/N=C(\N/C(=N/[H])NCCCCCCNC(=N)NC(=N)Nc1ccc(Cl)cc1)Nc1ccc(Cl)cc1 [chlorhexidine]
- Effectiveness against Gram negative bacteria colonizing the oral cavity [2]: relatively ineffective

SMILES: C[S+](C)[O-] [dimethylsulfoxide]
- Cytotoxicity to human keratinocyte and fibroblast cultures [1]: cytotoxic

SMILES: CC(O)CO (centres unmarked) [propylene glycol]
- Cytotoxicity to human keratinocyte and fibroblast cultures [1]: cytotoxic
